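These data come from cells grown in 96-well plates and exposed to compound for 48 hours at five concentrations. TGI marks complete inhibition of growth.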 Bounds are passed on as bounds.

What is called TGI is the concentration at which net growth stops.

Among the test systems are OVCAR-8 ovarian; HL-60(TB) leukemia; IGROV1 ovarian; UACC-62 melanoma; CAKI-1 renal; OVCAR-3 ovarian; ACHN renal; RXF 393 renal; NCI-H23 lung; UACC-257 melanoma; MDA-MB-231 breast; SR leukemia.
What all share (test): DTP human tumour cell line panel, 48 h

As to `CCOC(=O)c1c(SCCN2CCCC2)n(-c2ccccc2)c(=S)n(-c2ccccc2)c1=O`, the TGI in the test with OVCAR-8 ovarian worked out at 4.29 µM; in the test on HL-60(TB) leukemia, 3.52 µM; with IGROV1 ovarian, 4.47 µM; in the test on UACC-62 melanoma, 7.29 µM; in the test on CAKI-1 renal it was 5.23 µM; with OVCAR-3 ovarian it was 3.35 µM. Besides, the TGI turned out to be 3.17 µM with ACHN renal; 3.36 µM in the test with RXF 393 renal; 27.4 µM in the test on NCI-H23 lung; 3.34 µM in the test with UACC-257 melanoma; 4.4 µM in the test on MDA-MB-231 breast; 2.05 µM in the test with SR leukemia.

For `CCOC(=O)C1CC(O)C(=O)N1C` (centres undefined), the TGI with HL-60(TB) leukemia, with IGROV1 ovarian, in the test with UACC-62 melanoma, in the test with CAKI-1 renal, with OVCAR-3 ovarian and in the test on ACHN renal was above 100 µM in each case. Besides, the TGI with RXF 393 renal, with NCI-H23 lung, in the test on UACC-257 melanoma, in the test on MDA-MB-231 breast and in the test with SR leukemia was above 100 µM throughout.

`CC1CC(C#N)=C2NCCCCN2C1=O` (centres undefined): the TGI with OVCAR-8 ovarian, in the test with HL-60(TB) leukemia, with IGROV1 ovarian, with UACC-62 melanoma, in the test on CAKI-1 renal and in the test with OVCAR-3 ovarian was above 100 µM throughout. Further, the TGI in the test on RXF 393 renal, in the test on NCI-H23 lung, with UACC-257 melanoma, in the test with MDA-MB-231 breast and in the test with SR leukemia was above 100 µM throughout.

Take `COC(c1ccc(C(C)(C)C)cc1)(c1ccc(C(C)(C)C)cc1)c1cc(C(O)(c2cc(C(OC)(c3ccc(C(C)(C)C)cc3)c3ccc(C(C)(C)C)cc3)c(C)cc2C)c2cc(C(OC)(c3ccc(C(C)(C)C)cc3)c3ccc(C(C)(C)C)cc3)c(C)cc2C)c(C)cc1C`: the TGI in the test with OVCAR-8 ovarian, in the test with HL-60(TB) leukemia, in the test with IGROV1 ovarian, with UACC-62 melanoma, in the test on CAKI-1 renal and in the test with OVCAR-3 ovarian was above 100 µM throughout. The TGI in the test with RXF 393 renal, in the test on NCI-H23 lung, in the test on UACC-257 melanoma, in the test with MDA-MB-231 breast and with SR leukemia was above 100 µM each time.

With `CSc1c(C(=O)Nc2ccc(C)cc2)c(N)[nH]c(=O)c1C#N`, the TGI with OVCAR-8 ovarian, in the test on HL-60(TB) leukemia, with UACC-62 melanoma, with CAKI-1 renal, in the test on OVCAR-3 ovarian and in the test on RXF 393 renal was above 100 µM in each case. The TGI in the test on NCI-H23 lung, in the test with UACC-257 melanoma, in the test with MDA-MB-231 breast and with SR leukemia was above 100 µM throughout.

For `CC1=C2c3ccccc3N(C(=O)/C=C/C(=O)O)[C@H]2[C@H]2C(=O)OC(=O)[C@H]2C1`, the total growth inhibition concentration (TGI) in the test with OVCAR-8 ovarian, in the test with HL-60(TB) leukemia, in the test on IGROV1 ovarian, in the test on UACC-62 melanoma, in the test with CAKI-1 renal and in the test on OVCAR-3 ovarian was above 10 µM throughout. Further, the TGI in the test on ACHN renal, with RXF 393 renal, in the test with NCI-H23 lung, with MDA-MB-231 breast and in the test on SR leukemia was above 10 µM throughout.

For the compound `CO/N=C1/c2sccc2[C@H](NC(=O)CNC(=O)OC(C)(C)C)[C@@H]1O`, the TGI in the test on OVCAR-8 ovarian, in the test on HL-60(TB) leukemia, in the test with IGROV1 ovarian, with UACC-62 melanoma, in the test with CAKI-1 renal and in the test with OVCAR-3 ovarian was above 100 µM each time. Besides, the TGI with RXF 393 renal, with NCI-H23 lung, in the test on UACC-257 melanoma, in the test on MDA-MB-231 breast and with SR leukemia was above 100 µM each time.

Consider `COc1cc2c(cc1OC)C(=O)/C(=C/c1cc(C)c(O)c(C)c1)C2`, for which the concentration for total growth inhibition (TGI) in the test on HL-60(TB) leukemia, in the test on IGROV1 ovarian, with UACC-62 melanoma, with CAKI-1 renal, in the test with OVCAR-3 ovarian and with ACHN renal was above 100 µM throughout. Besides, the TGI in the test with RXF 393 renal is 0.439 µM; with NCI-H23 lung, above 100 µM; in the test with UACC-257 melanoma, above 100 µM; in the test on MDA-MB-231 breast, above 100 µM; in the test on SR leukemia it was above 100 µM.

For `Cc1nc2ccc([N+](=O)[O-])cc2c(=O)n1C(=S)Nc1cccc(Cl)c1`, the TGI in the test on HL-60(TB) leukemia was determined as 50.6 µM; with UACC-62 melanoma it was 29.1 µM; in the test with CAKI-1 renal it was 56 µM; in the test with OVCAR-3 ovarian it was 58.1 µM; in the test on ACHN renal it was 48.2 µM; with RXF 393 renal it was 40 µM. In addition, the TGI is 38.1 µM with NCI-H23 lung, 41.2 µM in the test on UACC-257 melanoma, 37.1 µM in the test with MDA-MB-231 breast and above 100 µM in the test on SR leukemia.

For the compound `O=C1/C(=C/c2ccc(F)cc2)CNC/C1=C\c1ccc(F)cc1`, the TGI in the test on OVCAR-8 ovarian was 9.52 µM; with HL-60(TB) leukemia, above 100 µM; in the test on IGROV1 ovarian, 2.52 µM; in the test with CAKI-1 renal, 3.4 µM; with OVCAR-3 ovarian, 3.99 µM; in the test on ACHN renal, 3.18 µM. The TGI with RXF 393 renal was 3.41 µM; in the test with NCI-H23 lung, 3.5 µM; in the test on UACC-257 melanoma, 28 µM; in the test on MDA-MB-231 breast, 13.5 µM; in the test with SR leukemia it was above 100 µM.

The values are drawn from PubChem BioAssay (NCI).
